From patent US8791267B2, “Biaryl PDE4 inhibitors for treating inflammatory, cardiovascular and CNS disorders” (Decode Genetics EHF, priority 2007, dated 2014)
pIC50: −log10 of the molar value. Structures can show the parent of a compound that is named as a salt.

Target: PDE4 (Homo sapiens, UniProt Q08499)
Experiment: In-vitro assay for PDE4 enzymes, real-time enzyme-coupled spectrophotometric assay (Table 9)
Type: biochemical
Details: human PDE4D; activity class, Table 9; read-out: hPDE4D

PDE4, sequence (Q08499 whole entry): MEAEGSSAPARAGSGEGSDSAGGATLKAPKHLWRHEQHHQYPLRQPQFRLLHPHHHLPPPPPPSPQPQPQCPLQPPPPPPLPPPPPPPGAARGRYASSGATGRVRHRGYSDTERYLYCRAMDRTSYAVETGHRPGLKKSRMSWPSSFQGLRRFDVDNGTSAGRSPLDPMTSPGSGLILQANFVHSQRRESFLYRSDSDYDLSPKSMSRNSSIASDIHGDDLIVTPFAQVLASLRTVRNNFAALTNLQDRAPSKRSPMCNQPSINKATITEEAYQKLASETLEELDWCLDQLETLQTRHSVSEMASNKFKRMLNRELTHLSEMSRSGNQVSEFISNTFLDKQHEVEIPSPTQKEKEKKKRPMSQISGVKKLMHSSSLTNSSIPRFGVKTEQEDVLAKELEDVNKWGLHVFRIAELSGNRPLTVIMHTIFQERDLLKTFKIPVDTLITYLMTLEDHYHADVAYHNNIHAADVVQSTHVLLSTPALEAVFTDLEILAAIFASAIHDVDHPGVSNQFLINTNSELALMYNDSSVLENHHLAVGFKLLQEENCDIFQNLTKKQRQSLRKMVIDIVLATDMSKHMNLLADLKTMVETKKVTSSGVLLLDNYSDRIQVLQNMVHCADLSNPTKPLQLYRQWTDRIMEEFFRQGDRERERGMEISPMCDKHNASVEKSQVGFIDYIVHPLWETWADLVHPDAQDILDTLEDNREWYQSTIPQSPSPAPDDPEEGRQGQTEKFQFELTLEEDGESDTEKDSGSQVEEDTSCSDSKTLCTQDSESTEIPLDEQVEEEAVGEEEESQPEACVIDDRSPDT

pIC50	SMILES
4.70 to 5.30	CN1CC[C@H](Oc2ccc(Cc3ccc(NC(N)=O)cc3)cc2-c2cccc(Cl)c2)C1 [P-556]
> 5.30	COc1ccc(Cn2cc(-c3ccncc3)cn2)c(F)c1-c1cccc(Cl)c1 [P-528, 4-[1-(3′-Chloro-2-fluoro-6-methoxy-biphenyl-3-ylmethyl)-1H-pyrazol-4-yl]-pyridine]
> 5.30	COc1ccc(Cc2cccc(NC(C)=O)c2)cc1-c1cccc(Cl)c1 [P-477, N-[3-(3′-Chloro-6-methoxy-biphenyl-3-ylmethyl)-phenyl]-acetamide]
> 5.30	COc1ccc(C(=O)c2ccc(N)cc2)cc1-c1ccc(F)c(F)c1 [P-580]
> 5.30	COc1ccc(CN2C(=O)c3ccccc3C2=O)cc1-c1ccc2c(c1)OCO2 [P-052, 2-(3-Benzo[1,3]dioxol-5-yl-4-methoxy-benzyl)-isoindole-1,3-dione]
4.70 to 5.30	COc1ccc(Cc2ccc(F)cc2)cc1-c1cccc(N2CCOCC2)c1 [P-385, 4-[5′-(4-Fluoro-benzyl)-2′-methoxy-biphenyl-3-yl]-morpholine]
> 5.30	CCOc1ccc(Cc2ccc(NC(C)=O)cc2)c(F)c1-c1cccc(Br)c1 [P-322]
> 5.30	CCNC(=O)Nc1ccc(S(=O)(=O)c2ccc(OC)c(-c3cccc(Cl)c3)c2)cc1 [P-450, 1-[4-(3′-Chloro-6-methoxy-biphenyl-3-sulfonyl)-phenyl]-3-ethyl-urea]
> 5.30	COc1ccc(Cc2ccc(N(C)C)cc2)c(O)c1-c1cccc([N+](=O)[O-])c1 [P-157, 3-(4-Dimethylamino-benzyl)-6-methoxy-3′-nitro-biphenyl-2-ol]
> 5.30	COc1ccc(Cc2ccc(Nc3nccs3)cc2)c(F)c1-c1cccc(Cl)c1 [P-466]
4.70 to 5.30	COc1ccc(Cc2ccc(N3CCNCC3)nc2)c(F)c1-c1cccc(Cl)c1 [P-423, 1-[5-(3′-chloro-2-fluoro-6-methoxy-biphenyl-3-ylmethyl)-pyridin-2-yl]-piperazine]
> 5.30	COc1ccc(Cc2ccc(F)cc2)cc1-c1cccc(Cl)n1 [P-391, 2-Chloro-6-[5-(4-fluoro-benzyl)-2-methoxy-phenyl]-pyridine]
> 5.30	CNC(=O)Cc1ccc(OC)c(-c2cccc([N+](=O)[O-])c2)c1 [P-027]
4.70 to 5.30	COc1ccc(Cc2nnc(N)o2)cc1-c1cccc(Cl)c1 [P-306, 5-(3′-Chloro-6-methoxy-biphenyl-3-ylmethyl)-[1,3,4]oxadiazol-2-ylamine]
> 5.30	COc1ccc(Cc2ccc(NC(=O)CN)cc2)c(F)c1-c1cccc(Cl)c1 [P-273]
4.40 to 4.70	COc1ccc(CO)nc1-c1cccc([N+](=O)[O-])c1 [P-491, [5-methoxy-6-(3-nitro-phenyl)-pyridin-2-yl]-methanol]
> 5.30	COc1ccc(C(=O)c2ccc(N)cc2)cc1-c1cccc(Cl)c1 [P-558, (4-amino-phenyl)-(3′-chloro-6-methoxy-biphenyl-3-yl)-methanone]
> 5.30	COc1ccc(Cc2ccc([N+](=O)[O-])c(O)c2)c(F)c1-c1cccc(Cl)c1 [P-257]
> 5.30	COc1ccc(Cc2ccc(Nc3nccs3)cc2)cc1-c1cccc(Cl)c1 [P-454, [4-(3′-Chloro-6-methoxy-biphenyl-3-ylmethyl)-phenyl]-thiazol-2-yl-amine]
> 5.30	NC(=O)COc1ccc(Cc2ccc(NC(N)=O)cc2)cc1-c1cccc(Cl)c1 [P-557, 2-[3′-Chloro-5-(4-ureido-benzyl)-biphenyl-2-yloxy]-acetamide]

pIC50	SMILES
4.70 to 5.30	COc1ccc(Cc2ccc(F)cc2)cc1-n1cc(-c2ccncc2)cn1 [P-389, 4-{1-[5-(4-Fluoro-benzyl)-2-methoxy-phenyl]-1H-pyrazol-4-yl}-pyridine]
> 5.30	COc1ccc(Cc2ccc(F)cc2)nc1-c1cccc(C(F)(F)F)c1 [P-065, 6-(4-fluoro-benzyl)-3-methoxy-2-(3-trifluoromethyl-phenyl)-pyridine]
> 5.30	COc1ccc(Cc2cccc(OCCN3CCOCC3)c2)c(F)c1-c1cccc(Cl)c1 [P-220]
> 5.30	COc1ccc(Cc2ccc(N3CCOCC3)nc2)c(F)c1-c1cccc(Cl)c1 [P-377]
> 5.30	COc1ccc(C(=O)c2ccc(NC(N)=O)cc2)c(F)c1-c1cccc(Cl)c1 [P-434, [4-(3′-chloro-2-fluoro-6-methoxy-biphenyl-3-carbonyl)-phenyl]-urea]
> 5.30	COc1ccc(Nc2ccc(NC(N)=O)cc2)cc1-c1cccc(Cl)c1 [P-294, [4-(3′-Chloro-6-methoxy-biphenyl-3-ylamino)-phenyl]-urea]
> 5.30	COc1ccc(Cc2ccc(F)cc2)cc1-c1cccnc1 [P-474, 3-[5-(4-Fluoro-benzyl)-2-methoxy-phenyl]-pyridine]
> 5.30	COc1ccc(Cc2ccc(F)cc2)c(OC)c1-c1cccc([N+](=O)[O-])c1 [P-097]
4.70 to 5.30	COc1ccc(Cc2cccc(NS(C)(=O)=O)c2)cc1-c1cccc(Cl)c1 [P-271, N-[3-(3′-Chloro-6-methoxy-biphenyl-3-ylmethyl)-phenyl]-methanesulfonamide]
> 5.30	COc1ccc(Cc2ccc(N3CCC(O)C3)nc2)cc1-c1cccc(Cl)c1 (stereo not shown) [P-602, 1-[5-(3′-chloro-6-methoxy-biphenyl-3-ylmethyl)-pyridin-2-yl]-pyrrolidin-3-ol]
> 5.30	COc1ccc(COc2ccc(NC(C)=O)cc2)c(F)c1-c1cccc(Br)c1 [P-194]
> 5.30	COc1ccc([C@@](C)(O)c2ccc(NC(C)=O)cc2)c(F)c1-c1cccc(Cl)c1 (single isomer, unassigned) [P-561]
4.70 to 5.30	COc1ccc(Cn2cncn2)nc1-c1cccc(C(F)(F)F)c1 [P-064, 3-methoxy-6-[1,2,4]triazol-1-ylmethyl-2-(3-trifluoromethyl-phenyl)-pyridine]
> 5.30	COc1ccc(Cc2ccc(N(C)C)cc2)c(F)c1-c1cccc(C(C)=O)c1 [P-326, 1-[3′-(4-Dimethylamino-benzyl)-2′-fluoro-6′-methoxy-biphenyl-3-yl]-ethanone]
> 5.30	COc1ccc(Cc2ccc(N(C)CC(N)=O)nc2)c(F)c1-c1cccc(Cl)c1 [P-622, 2-{[5-(3′-Chloro-2-fluoro-6-methoxy-biphenyl-3-ylmethyl)-pyridin-2-yl]-methyl-amino}-acetamide]
> 5.30	COc1ccc(Cc2ccc(NC(C)=O)cc2)c(F)c1-c1cccc(N2CCCC2)c1 [P-381, N-[4-(2-Fluoro-6-methoxy-3′-pyrrolidin-1-yl-biphenyl-3-ylmethyl)-phenyl]-acetamide]
> 5.30	COc1ccc(Cc2ccc(N3CC[C@@H]3C(N)=O)nc2)c(F)c1-c1cccc(Cl)c1 [P-617, (R)-1-[5-(3′-chloro-2-fluoro-6methoxy-biphenyl-3-ylmethyl)-pyridin-2-yl]-azetidine-2-carboxylic acid amide]
> 5.30	COc1ccc(Cc2ccc(N(C)C)cc2)cc1-c1cccc(Cl)c1 [P-241, [4-(3′-Chloro-6-methoxy-biphenyl-3-ylmethyl)-phenyl]-dimethyl-amine]
4.70 to 5.30	COc1ccc(Cc2ccccc2CNC=O)cc1-c1cccc([N+](=O)[O-])c1 [P-158, N-[2-(6-Methoxy-3′-nitro-biphenyl-3-ylmethyl)-benzyl]-formamide]
4.70 to 5.30	COc1ccc(Cc2cccc(CNC(=O)OC(C)(C)C)c2)cc1-c1cccc([N+](=O)[O-])c1 [P-160, [3-(6-Methoxy-3′-nitro-biphenyl-3-ylmethyl)-benzyl]-carbamic acid tert-butyl ester]

pIC50	SMILES
> 5.30	CCOC(=O)N1CCN(c2ccc(Cc3ccc(OC)c(-c4cccc(Cl)c4)c3F)cn2)CC1 [P-431]
> 5.30	COc1ccc(COc2ccnc(N3CCCC3)c2)c(F)c1-c1cccc(Cl)c1 [P-608]
> 5.30	COc1ccc(COc2ccc(N3CCC3)nc2)c(F)c1-c1cccc(Cl)c1 [P-586]
> 5.30	COc1ccc(Cn2cc(-c3ccncn3)cn2)c(F)c1-c1cccc(Cl)c1 [P-546, 4-[1-(3′-Chloro-2-fluoro-6-methoxy-biphenyl-3-ylmethyl)-1H-pyrazol-4-yl]-pyrimidine hydrochloride salt]
> 5.30	[2H]C(O)(c1ccc([N+](=O)[O-])cc1)c1ccc(OC)c(-c2cccc(Cl)c2)c1F (stereo not shown) [P-537, deutero-(3′-chloro-2-fluoro-6-methoxy-biphenyl-3-yl)-(4-nitro-phenyl)-methanol]
> 5.30	COc1ccc(Cc2ccc(OCCN3CCOCC3)cc2)c(F)c1-c1cccc(Cl)c1 [P-219]
> 5.30	COc1ccc(Cc2ccc(NC(=O)CN(C)C)cc2)c(F)c1-c1cccc(Cl)c1 [P-238, N-[4-(3′-chloro-2-fluoro-6-methoxy-biphenyl-3-ylmethyl)-phenyl]-2-dimethylamino-acetamide]
> 5.30	COc1ccc(Cc2ccc(F)cc2)cc1-c1ccc2c(c1)OCO2 [P-003, 5-[5-(4-Fluoro-benzyl)-2-methoxy-phenyl]-benzo[1,3]dioxole]
> 5.30	COc1ccc(Cc2ccc(F)cc2)c(F)c1-c1cccc(Br)c1 [P-139]
4.70 to 5.30	COc1ccc(Cc2ccc(NC(C)=O)cc2)c(F)c1-c1cccc(N2CCOCC2)c1 [P-390, N-[4-(2-Fluoro-6-methoxy-3′-morpholin-4-yl-biphenyl-3-ylmethyl)-phenyl]-acetamide]
> 5.30	CCNc1ccc(Cc2ccc(OC)c(-c3cccc(Cl)c3)c2)cc1 [P-247, [4-(3′-Chloro-6-methoxy-biphenyl-3-ylmethyl)-phenyl]-ethylamine; HCl salt]
> 5.30	COc1ccc(Cc2ccc(F)cc2)c(F)c1-c1cccc(N)c1 [P-098]
4.70 to 5.30	COc1ccc(Cn2cncn2)cc1-c1cccc([S+](C)[O-])c1 (stereo not shown) [P-169, 1-(3′-Methanesulfinyl-6-methoxy-biphenyl-3-ylmethyl)-1H-[1,2,4]triazole]
4.70 to 5.30	COc1ccc(C=Cc2ccc(F)cc2)c(F)c1-c1cccc(Cl)c1 [P-418]
> 5.30	COc1ccc(Cn2cc(-c3ccc(NC(N)=O)cc3)cn2)c(F)c1-c1cccc(Cl)c1 [P-435]
> 5.30	COc1ccc(COc2cccc(NC(C)=O)c2)c(F)c1-c1cccc(Cl)c1 [P-231]
> 5.30	COc1ccc(C(O)c2ccc(C#N)cc2)c(O)c1-c1cccc([N+](=O)[O-])c1 (stereo not shown) [P-137, 4-[Hydroxy-(2-hydroxy-6-methoxy-3′-nitro-biphenyl-3-yl)-methyl]benzonitrile]
4.70 to 5.30	[2H]C(O)(c1ccc(NC(N)=O)cc1)c1ccc(OC)c(-c2cccc(Cl)c2)c1 (stereo not shown) [P-584]
